Measured values reported in patent publication US8779004B2, “Stable emulsion formulations” (Amgen, Inc., priority 2006, dated 2014).

Assays:
Assay type in all cases: physicochemical
[1] = Solubility of calcimimetics in oil phases (RP-HPLC); details: oil or lipid, thermodynamic from solid
Description: The solubility measurements of the compounds were prepared by the addition of 1 g of drug substance to two milliliters of oil into a Wheaton 5 mL vial. The headspace was sparged with nitrogen, and enclosed with a West 4405/50 gray Teflon coated stopper and manually sealed by an aluminum overseal. The preparations were repeated again with the oils containing either purified egg or soy lecithin. All labeled vials were shaken at room temperature for eighteen hours on a platform shaker. After eighteen hours, the samples were diluted in mobile phase, and analyzed by the RP-HPLC method. Table 2 summarizes solubility results (expressed in mg/mL) of cinacalcet in various oil phases.

[2] = Effect of pH and buffer type on emulsion stability (pH, particle size before/after one autoclave cycle); details: after one autoclave cycle, 2% egg lecithin
Description: Tables 6 summarizes the effect of pH and the buffer type on emulsion stability as measured by the particle size. Emulsions were made using 2% egg lecithin, 2.25% glycerin in water for injection. Particle size and pH were measured after one-autoclave cycle. For all emulsions, particle size before autoclaving as represented by D(4,3) was in a range of 0.30 to 0.45 μm. Emulsions were stable at high pH using TRIS and DEA buffer, and at low pH using phosphate buffer over varying concentrations of cinacalcet and soybean oil. Closer to pH 7 using phosphate buffer, increase in particle size was seen after autoclaving.
Particle size data is reported as D(4,3) before and after one autoclaving cycle.

[3] = Zeta-potential vs pH of cinacalcet emulsions containing sodium oleate; details: cinacalcet emulsion; for pH at which charge is zero: from linear regression line; for zeta-potential: in mV (unit assumed)
Description: Preparation of Each Emulsion: the Emulsion were Prepared Using Substantially the same method as discussed above in Example 2 under “Laboratory scale preparation.” Briefly, the aqueous phase was prepared by adding appropriate amounts of glycerin and water to an appropriate container. The glycerin and water were mixed well and maintained at elevated temperatures (60-70° C.) by immersing the container in a water batch.
The oil phase was prepared by adding appropriate oil and lecithin. The container was tared and the cinacalcet free base was added. Appropriate quantity of sodium oleate (between 0-1%) was added to this oil phase mixture. The oil/lecithin/cinacalcet mixture was mixed at an elevated temperature using sonicater probes to disperse/dissolve the lecithin, the Cinacalcet free base and the sodium oleate.
The hot oil phase was transferred to the aqueous phase at elevated temperatures and homogenized to obtain coarse emulsion. Fine emulsion was obtained using a microfluidizer.
Charge Measurement: Zeta-potential as a function of pH was determined using a Malvern Zetasizer Nano Series Model ZEN 3600 laser-scattering particle electrophoretic analyzer that measures the electrophoretic mobility and zeta potential distribution. Samples were prepared for the zeta potential titration by diluting each emulsion approximately 2500-fold in water. The pH of this mixture was noted after dilution, and then adjusted to a pH 9 using sodium hydroxide. The pH was then titrated down to pH 6 in 0.3 or 0.5 unit steps. Zeta potential measurements were taken at every step. The zeta-potential of each emulsion was plotted as a function of pH and fit to a linear regression line.

[4] = DEA 0.05%, target cinacalcet 1 mg/mL, SBO conc. 10
[5] = DEA 0.05%, target cinacalcet 5 mg/mL, SBO conc. 5
[6] = DEA 0.05%, target cinacalcet 10 mg/mL, SBO conc. 10
[7] = DEA 0.1%, target cinacalcet 5 mg/mL, SBO conc. 5
[8] = DEA 0.2%, target cinacalcet 5 mg/mL, SBO conc. 5
[9] = DEA 0.3%, target cinacalcet 5 mg/mL, SBO conc. 5
[10] = No buffer, target cinacalcet 5 mg/mL, SBO conc. 10
[11] = PO4 buffer 15 mM, target cinacalcet 5 mg/mL, SBO conc. 10
[12] = TRIS 5 mM, target cinacalcet 1 mg/mL, SBO conc. 10
[13] = TRIS 5 mM, target cinacalcet 5 mg/mL, SBO conc. 10
[14] = TRIS 5 mM, target cinacalcet 10 mg/mL, SBO conc. 20
[15] = TRIS 10 mM, target cinacalcet 5 mg/mL, SBO conc. 5
[16] = TRIS 15 mM, target cinacalcet 5 mg/mL, SBO conc. 5
[17] = TRIS 20 mM, target cinacalcet 5 mg/mL, SBO conc. 5

C[C@@H](NCCCc1cccc(C(F)(F)F)c1)c1cccc2ccccc12 [Cinacalcet, N-(1-(R)-(1-naphthyl)ethyl]-3-[3-(trifluoromethyl)phenyl]-1-aminopropane] gave a solubility at 18 h ([1]; Long Chain Triglycerides (oil phase) with egg lecithin, Long Chain Triglycerides, Egg lecithin) of over 362 mg/mL, a solubility at 18 h ([1]; Long Chain Triglycerides (oil phase) with soy lecithin, Long Chain Triglycerides, Soy lecithin) of over 304 mg/mL and a solubility at 18 h ([1]; Long Chain Triglycerides (oil phase), Long Chain Triglycerides, no lecithin) of over 340 mg/mL. The solubility at 18 h ([1]; Medium Chain Triglycerides (oil phase) with egg lecithin, Medium Chain Triglycerides, Egg lecithin) was over 349 mg/mL, the solubility at 18 h ([1]; Medium Chain Triglycerides (oil phase) with soy lecithin, Medium Chain Triglycerides, Soy lecithin) was over 327 mg/mL and the solubility at 18 h ([1]; Medium Chain Triglycerides (oil phase), Medium Chain Triglycerides, no lecithin) was over 341 mg/mL. For the same compound, the solubility at 18 h ([1]; Structured Triglycerides (oil phase) with egg lecithin, Structured Triglycerides, Egg lecithin) was over 339 mg/mL, the solubility at 18 h ([1]; Structured Triglycerides (oil phase) with soy lecithin, Structured Triglycerides, Soy lecithin) was over 317 mg/mL and the solubility at 18 h ([1]; Structured Triglycerides (oil phase), Structured Triglycerides, no lecithin) was over 368 mg/mL. For the same compound, the “D(4, 3)” value [2, 4] was 0.44 μm, the pH [2, 4] was 8.81 and the “D(4, 3)” value [2, 5] was 0.39 μm. For the same compound, the pH [2, 5] was 8.77, the “D(4, 3)” value [2, 6] was 0.41 μm and the pH [2, 6] was 8.82. The “D(4, 3)” value [2, 7] was 0.40 μm, the pH [2, 7] was 8.95 and the “D(4, 3)” value [2, 8] was 0.35 μm. The pH [2, 8] was 9.13, the “D(4, 3)” value [2, 9] was 0.36 μm and the pH [2, 9] was 9.12. For the same compound, the “D(4, 3)” value [2, 10] was 1.48 μm, the pH [2, 10] was 8.45 and the pH ([2]; PO4 buffer 10 mM (first of two emulsions), target cinacalcet 5 mg/mL, SBO conc. 5) was 6.36. For the same compound, the pH ([2]; PO4 buffer 10 mM (second of two emulsions), target cinacalcet 5 mg/mL, SBO conc. 5) was 6.78, the “D(4, 3)” value ([2]; PO4 buffer 10 mM, pH 6.36, target cinacalcet 5 mg/mL, SBO conc. 5) was 0.39 μm and the “D(4, 3)” value ([2]; PO4 buffer 10 mM, pH 6.78, target cinacalcet 5 mg/mL, SBO conc. 5) was 0.76 μm. For the same compound, the “D(4, 3)” value [2, 11] was 1.59 μm, the pH [2, 11] was 7.15 and the “D(4, 3)” value [2, 12] was 0.48 μm. The pH [2, 12] was 8.75, the pH ([2]; TRIS 5 mM, target cinacalcet 5 mg/mL, SBO conc. 5) was 8.80 and the “D(4, 3)” value [2, 13] was 0.32 μm. For the same compound, the pH [2, 13] was 8.87, the pH ([2]; TRIS 5 mM, target cinacalcet 10 mg/mL, SBO conc. 10) was 8.82 and the “D(4, 3)” value [2, 14] was 0.36 μm. The pH [2, 14] was 8.82, the “D(4, 3)” value [2, 15] was 0.30 μm and the pH [2, 15] was 9.06. For the same compound, the “D(4, 3)” value [2, 16] was 0.34 μm, the pH [2, 16] was 9.04 and the “D(4, 3)” value [2, 17] was 0.29 μm. The pH [2, 17] was 9.13, the “pH at which charge is zero” value ([3]; 0% Na Oleate) was 8.02 and the “pH at which charge is zero” value ([3]; 0.25% Na Oleate) was 7.87. The “pH at which charge is zero” value ([3]; 0.5% Na Oleate) was 7.81, the “pH at which charge is zero” value ([3]; 1% Na Oleate) was 7.54 and the zeta-potential ([3]; pH 6.5, 0% Na Oleate) was 32.8. The zeta-potential ([3]; pH 6.5, 0.25% Na Oleate) was 36, the zeta-potential ([3]; pH 6.5, 0.5% Na Oleate) was 37.4 and the zeta-potential ([3]; pH 6.5, 1% Na Oleate) was 24.5. The zeta-potential ([3]; pH 7.0, 0% Na Oleate) was 17.8, the zeta-potential ([3]; pH 7.0, 0.25% Na Oleate) was 28.1 and the zeta-potential ([3]; pH 7.0, 0.5% Na Oleate) was 27.8. It also gave a zeta-potential ([3]; pH 7.0, 1% Na Oleate) of 23.8, a zeta-potential ([3]; pH 7.5, 0% Na Oleate) of 15.3 and a zeta-potential ([3]; pH 7.5, 0.25% Na Oleate) of 7.24. The zeta-potential ([3]; pH 7.5, 0.5% Na Oleate) was 16.2, the zeta-potential ([3]; pH 7.5, 1% Na Oleate) was 4.87 and the zeta-potential ([3]; pH 8.0, 0% Na Oleate) was 15. The zeta-potential ([3]; pH 8.0, 0.25% Na Oleate) was 2.83, the zeta-potential ([3]; pH 8.0, 0.5% Na Oleate) was 0.242 and the zeta-potential ([3]; pH 8.0, 1% Na Oleate) was −10.7. It also gave a zeta-potential ([3]; pH 8.5, 0% Na Oleate) of −16.7, a zeta-potential ([3]; pH 8.5, 0.25% Na Oleate) of −10 and a zeta-potential ([3]; pH 8.5, 0.5% Na Oleate) of −26.8. The zeta-potential ([3]; pH 8.5, 1% Na Oleate) was −30.4, the zeta-potential ([3]; pH 9.0, 0% Na Oleate) was −26.5 and the zeta-potential ([3]; pH 9.0, 0.25% Na Oleate) was −42.5. It also gave a zeta-potential ([3]; pH 9.0, 0.5% Na Oleate) of −42.1 and a zeta-potential ([3]; pH 9.0, 1% Na Oleate) of −52.9.
